# Values quoted from earlier work in patent publication US8445528B2, “Dendrimer conjugates” (priority 2008, dated 2013).
# Conditions: more cytotoxic than IRINOTECAN
structure (smiles),measurement,value
"CC[C@@]1(O)C(=O)OCc2c1cc1n(c2=O)Cc2cc3cc(O)ccc3nc2-1 [SN-38, 10-hydroxycamptothecin]",cytotoxicity relative to IRINOTECAN,1000 fold
